Measurements taken from US20250109444A1, “DNA HYPOMETHYLATION AS A PREDICTIVE MARKER FOR CANCER THERAPY” (Fred Hutchison Cancer Center, priority 2023, published 2025).

Legend:
Assay type in all cases: cell-based
[1] = test system: DHMC and non-DHMC cell lines; experiment: Cell viability of DHMC and non-DHMC cancer cell lines treated with AKT inhibitors; settings: DHMC vs non-DHMC cell lines, wide spectrum of cancer cell lines, in vitro
From the text: FIGS. 2A, 2B. […] (2A) Cell viability curves for DHMC (black) and non-DHMC (light gray) cell lines treated with 3 different AKT inhibitors (afuresertib, AZD5363, ipatasertib). (2B) IC50s for DHMCs (black) and non-DHMCs (gray).

LNCaP cells [2] = experiment: Cell viability of solvent vs SAMe treated LNCaP cells in response to AKTi (ipatasertib); settings: prolonged treatment with methyl donor SAMe vs solvent
From the text: (§1) FIGS. 4A, 4B. Modulation of global DNA methylation changes the sensitivity to AKT inhibitors. (4A) Cell viability curves for solvent (circle) and SAMe (square) treated LNCaP cells. The difference in cell viability in response to AKTi (ipatasertib) treatment is shown. (4B) Decitabine (DAC) and GSK344862 results in sensitization.

[3] = Sensitization to AKT inhibitors by pharmacologically induced DNA hypomethylation (DNMT inhibitors); settings: pharmacologically induced DNA hypomethylation with DNMT inhibitor
From the text: as §1

MALME3 cells = experiment: Co-treatment with EED inhibitor and ipatasertib
From the text: (§2) FIGS. 5A-5C. […] Increased dependency on PRC2-mediated chromatin repression is observed with AKT inhibition, creating a therapeutic vulnerability. Co-treatment with AKTi and PRC2 inhibitors (such as EZH2 or EED inhibitors) results in synergistic effects.

[4] = test system: DHMC and non-DHMC cell lines; experiment: Cell viability of DHMC and non-DHMC cancer cell lines treated with histone evicting anthracyclines; settings: DHMC vs non-DHMC cell lines, wide spectrum of cancer cell lines
LNCaP cells [5] = experiment: Co-treatment with EZH2 inhibitor and ipatasertib, cell viability; settings: co-treatment with AKT inhibitor ipatasertib
From the text: as §2

## Cn1ncc(Cl)c1-c1cc(C(=O)N[C@H](CN)Cc2cccc(F)c2)sc1Cl [afuresertib, Afuresertib]
[1]
  Sensitivity of DHMC compared to non-DHMC (cell viability curves, IC50s): increased sensitivity

## C[S+](CC[C@H](N)C(=O)O)C[C@H]1O[C@@H](n2cnc3c(N)ncnc32)[C@H](O)[C@@H]1O (stereo partly drawn) [SAMe, S-Adenosylmethionine]
LNCaP cells [2]
  Change of sensitivity to AKTi (cell viability): decreases sensitivity to AKTi

## CCc1c(C#N)c(SC(C(N)=O)c2ccccc2)nc(N(C)C)c1C#N (stereo not drawn) [GSK-3484862]
[3]
  Change of sensitivity to AKT inhibitors (AKTi): increases sensitivity to AKT inhibitors

## CN(C)[C@H]1CN(C2CCc3cccc(F)c32)C[C@@H]1c1ccc(N2CCN(S(C)(=O)=O)CC2)cc1 (stereo partly drawn) [A395]
MALME3 cells
  Interaction with ipatasertib: Synergistic interaction

## CC(C)NC[C@@H](C(=O)N1CCN(c2ncnc3c2[C@H](C)C[C@H]3O)CC1)c1ccc(Cl)cc1 [ipatasertib, Ipatasertib]
[1]
  Sensitivity of DHMC compared to non-DHMC (cell viability curves, IC50s): increased sensitivity

## CC[C@@]1(O)C[C@H](O[C@H]2C[C@H](N(C)C)[C@H](O[C@H]3C[C@H](O)[C@H](O[C@H]4CCC(=O)[C@H](C)O4)[C@H](C)O3)[C@H](C)O2)c2c(cc3c(c2O)C(=O)c2c(O)cccc2C3=O)[C@H]1C(=O)OC [aclarubicin]
[4]
  Sensitivity of DHMC compared to non-DHMC (cell viability curves, IC50s): increased sensitivity

## NC1(C(=O)N[C@@H](CCO)c2ccc(Cl)cc2)CCN(c2nc[nH]c3nccc2-3)CC1 [AZD5363, Capivasertib]
[1]
  Sensitivity of DHMC compared to non-DHMC (cell viability curves, IC50s): increased sensitivity

## dimethyl-doxorubicin
[4]
  Sensitivity of DHMC compared to non-DHMC (cell viability curves, IC50s): increased sensitivity

## CC[C@H](C)n1cc(C)c2c(C(=O)NCc3c(C)cc(C)[nH]c3=O)cc(-c3ccc(N4CCNCC4)nc3)cc21 [GSK126]
LNCaP cells [5]
  Interaction with ipatasertib (cell viability): synergistic reduction in cell viability
